Experimental data: US8541442B2, “Indole derivatives as anticancer agents” (Janssen Pharmaceutica N.V., priority 2009, dated 2013)
Values belong to the compound of their own block, whether it stands above or below them.

How the values were obtained:
[1] = test system: non-small cell lung cancer cell line H1299; assay: Alamar Blue cell proliferation assay, H1299; assay type: cell-based
Experimental: (§1) For experiments in 384 wells plates the cells were seeded at a density of 5×10^3 cells/ml in Falcon 384-well culture plates (Life Technologies, Merelbeke, Belgium), black with clear bottom, in 45 μl culture medium. Cells were allowed to adhere to plastic for 24 hr. The tested compound was pre-diluted (1/50 in culture medium) and 5 μl pre-diluted compound was added to the wells. Following 4-day incubation, 10 μl of the Alamar Blue solution was added to each well and the cells were further incubated for 5 hrs (A2780) at 37° C. The fluorescence intensity was measured for each well with a Fluorescence plate reader (Fluorskan, Labsystems, 540 nm excitation and 590 nm emission)
(§2) The antiproliferative activity was calculated as percentage of remaining viable cells in treated versus control (untreated cells) conditions. Within an experiment, the result for each experimental condition is the mean of 3 replicate wells. When appropriate, the experiments were repeated to establish full concentration-response curves. When appropriate, IC50-values (concentration of the drug, needed to reduce cell growth to 50% of the control) were computed using probit analysis for graded data (Finney, D. J., Probit Analyses, 2nd Ed. Chapter 10, Graded Responses, Cambridge University Press, Cambridge 1962). Herein the effects of test compounds are expressed as pIC50 (the negative log value of the IC50-value (M)) (see Table 5A).
(§3) Compounds were also tested according to the above protocol but using other cell lines: colorectal cancer cell line HCT116, non-small cell lung cancer cell line H1299, human prostate cancer cell line DU145.

[2] = test system: A2780 ovarian cancer cells; assay: Alamar Blue cell proliferation assay, A2780; assay type: cell-based, human; details: 4-day incubation; for IC50: Homo sapiens, A2780, 96 h, read-out: A2780 cell proliferation inhibition pIC50 (converted)
Experimental: The human A2780 ovarian cancer cells were a kind gift from Dr. T. C. Hamilton (Fox Chase Cancer Centre, Pennsylvania, U.S.A.). The cells were cultured in RPMI 1640 medium supplemented with 2 mM L-Glutamine, 50 μg/ml gentamicin and 10% fetal calf serum.
Potassium Phosphate Buffer 0.1 M (PPB) was made as follows: 2.72 gram KH2PO4 and 13.86 gram K2HPO4 were dissolved in 500 ml milli-Q H2O, the pH was adjusted to pH 7.4 and the volume was brought to 1 liter with milli-Q H2O; the buffer was filter sterilised and stored at room temperature. Resazurin stock solution (PPB-A) was prepared fresh by dissolving 45 mg resazurin in 15 ml PBS. 30 mM potassium ferricyanide (PPB-B) was prepared by dissolving 0.987 gram potassium ferricyanide in 100 ml PPB. 30 mM potassium ferrocyanide (PPB-C) was prepared by dissolving 1.266 gram potassium ferrocyanide in 100 ml PPB.
Mixture of PPB-A, PPB-B and PPB-C was prepared by mixing equal volumes of the respective solutions. Resazurin work solution (herein termed “Alamar Blue” solution) was prepared by diluting said mixture 20×(vol/vol) in PPB and filter sterilising; the Alamar Blue solution could be kept at 4° C. for a maximum of 2 weeks.
as §1, §2

[3] = test system: colorectal cancer cell line HCT116; assay: Alamar Blue cell proliferation assay, HCT116; assay type: cell-based; details: for IC50: Homo sapiens, HCT-116, HCT116 cells, read-out: HCT116 cell proliferation inhibition pIC50 (converted)
Experimental: as §1, §2, §3

[4] = test system: p53 in A2780 cells; assay: p53 ELISA (preservation of p53 in A2780 cells); assay type: cell-based, human; details: 16 hours treatment; for minimal effective concentration: Homo sapiens, A2780, 16 h, read-out: p53-elisa LAD (lowest dose giving at least 140% of the value for p53 present in the control)
Experimental: The capacity of the present compounds to preserve p53 in A2780 cells was measured with the p53 enzyme linked immunosorbent assay. The p53 assay is a “sandwich” enzyme immunoassay employing two polyclonal antibodies. A polyclonal antibody, specific for the p53 protein, has been immobilized onto the surface of the plastic wells. Any p53 present in the sample to be assayed will bind to the capture antibody. The biotinylated detector polyclonal antibody also recognizes p53 protein, and will bind to any p53, which has been retained by the capture antibody. The detector antibody, in turn, is bond by horseradish peroxidase-conjugated streptavidin. The horseradish peroxidase catalyses the conversion of the chromogenic substrate o-phenylene diamine, the intensity of which is proportional to the amount of p53 protein bond to the plate. The colored reaction product is quantified using a spectrophotometer. Quantitation is achieved by the construction of a standard curve using known concentrations of purified recombinant HIS tagged p53 protein (see example C.1.).
A2780 cells (ATCC) were cultivated in RPMI 1640 supplemented with 10% fetal calf serum (FCS), 2 mM L-glutamine and gentamycin at 37° C. in a humidified incubator with 5% CO2.
A2780 cells were seeded at 20.000 cells per well in a 96 well plate, cultured for 24 hours and treated with compound for 16 hours at 37° C. in a humidified incubator. After incubation, the cells were washed once with phosphate-buffered saline and 30 μl, per well, low salt RIPA buffer (20 mM tris, pH7.0, 0.5 mM EDTA, 1% Nonidet P40, 0.5% DOC, 0.05% SDS, 1 mM PMSF, 1 μg/ml aprotinin and 0.5 μ/ml leupeptin) was added. Plates were placed on ice for 30 minutes to complete the lysis. p53 protein was detected in de lysates by using the sandwich ELISA, described below.
High binding polystyrene EIA/RIA 96 well plates (Costar 9018) were coated with the capture antibody pAb1801 (Abcam ab28-100) at a concentration of 1 μg/ml in coating buffer (0.1 M NaHCO3 pH8.2), 50 μl per well. The antibody was allowed to adhere overnight at 4° C. Coated plates were washed once with phosphate-buffered saline (PBS)/0.05% Tween 20 and 300 μl of blocking buffer (PBS, 1% bovine serum albumins (BSA)) was added, for an incubation period of 2 hours at room temperature. Dilutions of purified recombinant HIS tagged p53 protein, ranging from 3-200 ng/ml, were made in blocking buffer and used as standards.
Plates were washed twice with PBS/0.05% Tween 20 and blocking buffer or standards were added at 80 μl/well. To the standards, 20 μl of lysis buffer was added. The samples were added to the other wells at 20 μl lysate/well. After an overnight incubation at 4° C., plates were washed twice with PBS/0.05% Tween 20. Aliquots of 100 μl secondary polyclonal antibody p53(FL-393) (Tebubio, sc-6243) at a concentration of 1 μg/ml in blocking buffer were added to each well and allowed to adhere for 2 hours at room temperature. Plates were washed three times with PBS/0.05% Tween 20. Detection antibody anti-rabbit HRP (sc-2004, Tebubio) at 0.04 μg/ml in PBS/1% BSA was added and incubated for 1 hour at room temperature. Plates were washed three times with PBS/0.05% Tween 20 and 100 μl of substrate buffer was added (substrate buffer was prepared shortly before use by adding 1 tablet of 10 mg o-phenylene diamine (OPD) from Sigma and 125 μl 3% H2O2 to 25 ml OPD buffer: 35 mM citric acid, 66 mM Na2HPO4, pH5.6). After 5 to 10 minutes, colour reaction was stopped by adding 50 μl stop buffer (1 M H2SO4) per well. The absorbance at dual wavelengths of 490/655 nm was measured using a Biorad micro plate reader and the results were then analyzed.
For each experiment, controls (containing no drug) and a blank incubation (containing no cells or drugs) were run in parallel. The blank value was subtracted from all control and sample values. For each sample, the value of p53 (in absorbance units) was expressed as the percentage of the value for p53 present in the control. […]

[5] = test system: human prostate cancer cell line DU145; assay: Alamar Blue cell proliferation assay, DU145; assay type: cell-based; details: Homo sapiens, DU-145, DU145 cells; read-out: DU145 cell proliferation inhibition pIC50 (converted)
Experimental: as §1, §2, §3

[6] = test system: Male NMRI mice; assay: Ro-4-1284 antagonism in mice; assay type: in vivo; details: Ro-4-1284 antagonism test in mice
Experimental: The test is a modification of a procedure described by Colpaert et al. (1975).^3 Male NMRI mice (22±3 g) were housed in macrolon observation cages (L×W×H: 11×12×17 cm; n=3 per cage). At the start of the experiments immediately before test compound administration, the initial body temperature of the mice was measured with a precision of 0.1° C. by inserting the thermo-sensitive probe (1.0 mm diameter) of an electric thermometer (Comark) to a constant depth of 3 cm into the esophagus until a stable reading was obtained. The right eye pupil diameter was measured with a graduated microscope and expressed in 1/24 mm units. Fifteen min after test compound administration, the mice were challenged with Ro-4-1284 (10 mg/kg, s.c.). Ro-4-1284 is a reserpine-like vesicular monoamine transport (VMAT-2) inhibitor, which rapidly depletes secretory vesicles.^3,4 Fifteen, 30 and 60 min after challenge, the mice were scored for palpebral opening (0, 1, 2, 3, 4, 5) and locomotor activity (−1, 0, 1, 2, 3). At the 60-min interval, immediately after the scoring of overt behavior, the right eye pupil diameter and the esophageal temperature were measured again. Abnormal phenomena such as intensive sniffing, chewing, rearing, hyperemia, piloerection, salivation, tremors, convulsions and death were noted (the latter phenomena were also noted when occurring before Ro-4-1284 administration). Criteria for drug-induced effects: reversal of ptosis: palpebral opening score >1 at 15, 30 or 60 min (2.7, 0.5 and 0% false positive controls, respectively; n>350); induction of prostration: score −1 for locomotion at 15, 30 or 60 min (never observed in controls); reversal of hypomotility: score >0 for locomotion at 15, 30 and 60 min (2.2, 0.8 and 0% false positive controls, respectively); reversal of miosis: pupil diameter >5 units at 60 min (0.8% false positives); potentiation of hypothermia: temperature decrease (over the 1-h time interval)>9.0° C. (1.4% false positives); reversal of hypothermia: temperature decrease <3.0° C. (1.8% false positives).
According to the standard procedure, R0-4-1284 is injected 15 min following subcutaneous or oral administration and observations start 15 min later. Doses are initially given to 3 animals. When at least 2 out of the 3 animals show activity for at least one of the observations, the compound is considered active.

H1299 cell proliferation inhibition pIC50 ([1]; H1299 cells): <5
A2780 cell proliferation inhibition pIC50 [2]: 6.90
HCT116 cell proliferation inhibition pIC50 ([3]; HCT116 cells): 5.61
Structure (SMILES): Cc1cc(Nc2ccnc3c2CCC3O)ccc1NCCc1c[nH]c2c(CCO)cccc12 (single isomer, unassigned) [Compound 13]
p53-elisa LAD (lowest dose giving at least 140% of the value for p53 present in the control) [4]: 1.00 µM

Structure (SMILES): COC1CCc2c(Nc3ccc(NCCc4c[nH]c5c(C(C)(C)O)cccc45)cc3)ccnc21 (centres unmarked) [Compound 8]
IC50 [2]: 87.1 nM
IC50 [3]: 87.1 nM
minimal effective concentration [4]: 0.1 µM

IC50 ([1]; Homo sapiens, NCI-H1299, H1299 cells, read-out: H1299 cell proliferation inhibition pIC50 (converted)): 3980 nM
IC50 [5]: 7240 nM
IC50 [2]: 372 nM
IC50 [3]: > 10000 nM
Structure (SMILES): C=Cc1ccc2c(CCNc3ccc(Nc4ccnc5c4CCC5O)cc3C)c[nH]c2c1 (centres unmarked) [Compound 14]
minimal effective concentration [4]: 1 µM

Structure (SMILES): OC1CCc2c(Nc3ccc(NCCc4c[nH]c5ccccc45)cc3)ccnc21 (centres unmarked) [drawing 152, reference compound]
drug induced neurological side effects [6]: yes

Structure (SMILES): OC1CCc2c(Nc3ccc(NCCc4c[nH]c5ccccc45)cc3)ccnc21 (centres unmarked) [drawing 153, reference compound]
drug induced neurological side effects [6]: yes

Structure (SMILES): Cc1cc(Nc2ccncc2)ccc1NCCc1c[nH]c2ccccc12 [reference compound]
drug induced neurological side effects [6]: yes

Structure (SMILES): c1ccc2c(CCNc3ccc(Nc4ccncc4)cc3)c[nH]c2c1 [reference compound]
drug induced neurological side effects [6]: yes

Structure (SMILES): Cc1cccc2c(CCNc3ccc(Nc4ccncc4)cc3)c[nH]c12 [reference compound]
drug induced neurological side effects [6]: yes
